Measurements taken from patent publication US8883801B2, “Substituted pyrazolo[1,5-a]pyrimidines as mTOR inhibitors” (Merck Sharp & Dohme Corp., priority 2010, dated 2014).
Where two headings read alike, the source gives them in different places.

Tests used:
[1] = tested on: mTORC2 activity: phosphorylated AKT Ser473 (pAKT S473) in PC3 cells; assay: mTOR target engagement assay, immunofluorescent cell-based, mTORC2 readout; conditions: Homo sapiens, PC-3, 1.5 h, 90 min treatment
Description: The target engagement of mTOR kinase inhibitors was evaluated using an immunofluorescent cell-based assay. In this assay, inhibition of mTORC1 activity was measured by the reduction in the level of phosphorylated 4E-BP1Thr37/46 (p4E-BP1 Thr37/46), and inhibition of mTORC2 activity was measured by the reduction of phosphorylated AKTSer473 (pAKT S473).
PC3 cells (prostate tumor cell-line that contains a mutation in the tumor suppressor PTEN, that promotes the phosphorylation and activation of AKT and 4E-BP1) were used in the immunofluorescence assay. PC3 cells were seeded on 384 well plates (black clear bottom, Matrix #4332) overnight. PC3 cells were then treated with 40 μl of the serially diluted test compounds (in 5% fetal bovine serum, F12 medium containing 0.25% DMSO) for ninety minutes at 37° C. The test compound solution was removed, and the plates were washed gently two times with 25 μl phosphate buffered saline (PBS). The cells were fixed by adding 25 μl of Prefer reagent (from Anatech LTD, Cat#414, a glyoxal fixative for fixing proteins within a cell) for sixty minutes followed by three washes with PBS. 5% Goat serum in PBS/0.3% Triton was used to block non-specific binding (60 minutes).
The primary antibodies targeting pAKT S473 and p4E-BP1 Thr37/46 were diluted into PBS/0.3% Triton and incubated with the cells overnight at 4° C. The antibodies targeting pAKTS473 (Cat#4085, Cell signaling) and p4E-BP1 Thr37/46 (Cat#2855, Cell signaling) were used at a 1:100 dilution. Plates were washed three times with PBS/0.1% Tween 20 before adding the secondary antibody at a 1:200 dilution. (goat anti-rabbit containing a fluorescent label, Alexa Fluor 488, Cat#A11008, Invitrogen) in PBS/0.3% Triton for 60 minutes.
Finally, the plates were washed three times with PBS/0.1% Tween 20 and the fluorescent intensity was read using an Analyst HT from Molecular Devices. The fluorescent intensity values from the serially diluted compound treatment group were analyzed using the Xlfit 4 program ([…]) (Formula 205: Y=Bottom+(Top-Bottom)/(1+(IC50/X)^Hillslope) to generate the IC50 value. Where Top is the maximum signal without Compound (+DMSO only) and Bottom represents maximum inhibition. Y is the fluorescence at some compound concentration. The control used to determine the fluorescent intensities for 100% pAKT S473 or 100% phosphorylated p4E-BP1 Thr37/46 were measured from untreated wells that contained only DMSO, instead of test compound.

human mTOR enzyme = human mTOR enzyme (Homo sapiens, UniProt P42345); assay: HTRF mTOR enzyme (kinase) assay; type: biochemical; conditions: 5 μM ATP, 0.2 μM GST-S6K, read-out: hMTOR IC50
human mTOR enzyme, sequence (P42345 1360-2549 limits assumed): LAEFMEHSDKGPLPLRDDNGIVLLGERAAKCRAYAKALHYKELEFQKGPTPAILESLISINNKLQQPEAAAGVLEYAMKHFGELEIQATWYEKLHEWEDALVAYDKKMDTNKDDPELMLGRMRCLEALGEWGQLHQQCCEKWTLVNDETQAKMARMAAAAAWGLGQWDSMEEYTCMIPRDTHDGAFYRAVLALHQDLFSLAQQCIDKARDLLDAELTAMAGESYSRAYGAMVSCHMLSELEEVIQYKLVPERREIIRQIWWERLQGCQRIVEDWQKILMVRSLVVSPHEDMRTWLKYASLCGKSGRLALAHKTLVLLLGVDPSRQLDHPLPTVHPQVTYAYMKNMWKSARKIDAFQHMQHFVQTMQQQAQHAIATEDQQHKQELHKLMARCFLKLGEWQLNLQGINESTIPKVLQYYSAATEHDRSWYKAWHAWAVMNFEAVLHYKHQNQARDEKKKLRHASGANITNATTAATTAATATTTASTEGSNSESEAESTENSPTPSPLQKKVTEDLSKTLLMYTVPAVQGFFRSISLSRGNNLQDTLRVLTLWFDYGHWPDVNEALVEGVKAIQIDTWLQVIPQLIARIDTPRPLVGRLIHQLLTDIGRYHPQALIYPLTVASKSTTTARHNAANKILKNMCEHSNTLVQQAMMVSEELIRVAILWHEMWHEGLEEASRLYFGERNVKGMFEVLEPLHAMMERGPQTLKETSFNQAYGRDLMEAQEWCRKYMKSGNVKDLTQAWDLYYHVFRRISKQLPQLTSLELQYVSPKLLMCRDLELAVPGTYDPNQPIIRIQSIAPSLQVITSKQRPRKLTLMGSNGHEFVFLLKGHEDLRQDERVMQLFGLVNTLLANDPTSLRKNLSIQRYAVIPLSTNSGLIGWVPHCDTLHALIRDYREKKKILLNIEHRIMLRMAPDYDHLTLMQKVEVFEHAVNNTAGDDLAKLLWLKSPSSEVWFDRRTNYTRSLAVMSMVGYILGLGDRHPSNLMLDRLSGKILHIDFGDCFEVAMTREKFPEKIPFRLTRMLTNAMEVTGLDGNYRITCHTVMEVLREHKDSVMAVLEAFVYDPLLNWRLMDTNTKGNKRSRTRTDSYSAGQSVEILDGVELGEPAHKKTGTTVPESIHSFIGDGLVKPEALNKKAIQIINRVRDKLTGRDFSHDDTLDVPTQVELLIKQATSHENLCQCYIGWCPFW
Description: Methods: An HTRF mTOR enzyme assay was developed to assess the compounds' inhibitory activity. The mTOR assay buffer contained 10 mM Hepes (pH 7.4), 50 mM NaCl, […] BSA, 50 mM […], 10 mM MnCl2 and 0.5 mM DTT. […] 20 ng of human mTOR enzyme (<5% pure was preincubated with the compound for 10 minutes followed by the addition of 5 μM ATP and 0.2 μM GST-S6K (Zhang et al., Protein Expression and Purification 46, pp 414-420 (2006)). The reaction was incubated for one hour at 30° C. Anti phospho p70-S6K(Thr389) (˜1.7 ng/well, anti-phospho-p70S6K-cryptate (Pho-p70S6-Kin-K cat#64CUSKAY, from Cisbio)) and anti GST-XL665 (1:1 Ratio with the substrate GST-S6K, anti GST-XL665, cat#61GSTXLB) Cisbio) were added after the reaction was stopped. The plates were read (PHERAstar, BMG) at least 2 hours after adding the anti phospho p70-S6K and the anti GST-XL665.
IC50 DETERMINATIONS: Dose-response curves were plotted from the inhibition data generated, each in duplicate, from 8 point serial dilutions of inhibitory compounds. Concentration of compound was plotted against the HTRF em665/em590 ratio signal. To generate IC50 values, the dose-response curves were fitted to a standard sigmoidal curve and IC50 values were derived by nonlinear regression analysis.

Row | Compound | IC50 ([1]; rated class) [nM] | IC50 (human mTOR enzyme; rated class) [nM] | IC50 ([1]; numeric value) [nM] | IC50 (human mTOR enzyme; numeric value) [nM]
1 | N#CC1(O)CCC(c2nc3c(-c4ccc(-c5ccccc5)nc4)cnn3c(N)c2Br)CC1 (centres unmarked) [Compound 74, 4-(7-amino-6-bromo-3-(6-phenylpyridin-3-yl)pyrazolo[1,5-a]pyrimidin-5-yl)-1-hydroxycyclohexanecarbonitrile] | 2000 to 5000 | 1 to 100 | – | –
2 | CO[C@]1(C(=O)O)CC[C@H](c2nc3c(-c4cnc5ccc(F)cc5c4)cnn3c(N)c2C(C)=O)CC1 [Compound 38, (1S,4S)-4-(6-acetyl-7-amino-3-(6-fluoroquinolin-3-yl)pyrazolo[1,5-a]pyrimidin-5-yl)-1-methoxycyclohexane-carboxylic acid] | 100 to 1000 | 1 to 100 | – | –
3 | COCCOC[C@]1(C(=O)O)CC[C@H](c2nc3c(-c4ccc(-c5ccccc5)nc4)cnn3c(N)c2Br)CC1 [Compound 11, (1R,4R)-4-(7-amino-6-bromo-3-(6-phenylpyridin-3-yl)pyrazolo[1,5-a]pyrimidin-5-yl)-1-((2-methoxyethoxy)methyl)cyclohexane-carboxylic acid] | – | – | 2030 | 4.61
4 | CS(=O)(=O)C1(C(=O)O)CCC(c2nc3c(-c4cnn(-c5ccccc5)c4)cnn3c(N)c2Br)CC1 (centres unmarked) [Compound 27, 4-(7-amino-6-bromo-3-(1-phenyl-1H-pyrazol-4-yl)pyrazolo[1,5-a]pyrimidin-5-yl)-1-(methylsulfonyl)cyclohexanecarboxylic acid] | 2000 to 5000 | 1 to 100 | – | –
5 | Nc1c(Br)c([C@H]2CC[C@@](F)(C(=O)O)CC2)nc2c(-c3ccc(-c4ccccc4)nc3)cnn12 [Compound 4, (1R,4R)-4-(7-amino-6-bromo-3-(6-phenylpyridin-3-yl)pyrazolo[1,5-a]pyrimidin-5-yl)-1-fluorocyclohexane-carboxylic acid] | 100 to 1000 | 1 to 100 | – | –
6 | COCCO[C@]1(C(=O)O)CC[C@@H](c2nc3c(-c4cnn(-c5ccccc5)c4)cnn3c(N)c2C(C)=O)CC1 [Compound 55, (1R,4R)-4-(6-acetyl-7-amino-3-(1-phenyl-1H-pyrazol-4-yl)pyrazolo[1,5-a]pyrimidin-5-yl)-1-(2-methoxyethoxy)cyclohexanecarboxylic acid] | 100 to 1000 | 1 to 100 | – | –
7 | COC1(C#N)CCC(c2nc3c(-c4ccc(-c5ccccc5)nc4)cnn3c(N)c2Br)CC1 (centres unmarked) [Compound 75, 4-(7-amino-6-bromo-3-(6-phenylpyridin-3-yl)pyrazolo[1,5-a]pyrimidin-5-yl)-1-methoxycyclohexane-carbonitrile] | 2000 to 5000 | 1 to 100 | – | –
8 | COC[C@]1(C(=O)O)CC[C@@H](c2nc3c(-c4ccc(-c5ccccc5)nc4)cnn3c(N)c2C(C)=O)CC1 [Compound 19, (1S,4S)-4-(6-acetyl-7-amino-3-(6-phenylpyridin-3-yl)pyrazolo[1,5-a]pyrimidin-5-yl)-1-(methoxymethyl)-cyclohexane-carboxylic acid] | 100 to 1000 | 1 to 100 | – | –
9 | COCC1(C(=O)O)CCC(c2nc3c(-c4cnn(-c5ccccc5)c4)cnn3c(N)c2Br)CC1 (centres unmarked) [Compound 6, 4-(7-amino-6-bromo-3-(1-phenyl-1H-pyrazol-4-yl)pyrazolo[1,5-a]pyrimidin-5-yl)-1-(methoxymethyl)-cyclohexane-carboxylic acid] | 1000 to 2000 | 1 to 100 | – | –
10 | COCCOC[C@]1(C(=O)O)CC[C@H](c2nc3c(-c4cnn(-c5ccccc5)c4)cnn3c(N)c2Br)CC1 [Compound 13, (1R,4R)-4-(7-amino-6-bromo-3-(1-phenyl-1H-pyrazol-4-yl)pyrazolo[1,5-a]pyrimidin-5-yl)-1-((2-methoxyethoxy)methyl)cyclohexane-carboxylic acid] | 5000 to 15000 | 1 to 100 | – | –
11 | CC(=O)c1c(N)n2ncc(-c3ccc(-c4ccccc4)nc3)c2nc1[C@H]1CC[C@](O)(CCO)CC1 [Compound 159, 1-(7-amino-5-((1S,4S)-4-hydroxy-4-(2-hydroxyethyl)-cyclohexyl)-3-(6-phenylpyridin-3-yl)pyrazolo[1,5-a]pyrimidin-6-yl)ethanone] | 1 to 100 | 1 to 100 | – | –
12 | COCCOC1(CO)CCC(c2nc3c(-c4cnn(-c5ccccc5)c4)cnn3c(N)c2C(C)=O)CC1 (centres unmarked) [Compound 87, 1-(7-amino-5-(4-(hydroxymethyl)-4-(2-methoxyethoxy)-cyclohexyl)-3-(1-phenyl-1H-pyrazol-4-yl)pyrazolo[1,5-a]pyrimidin-6-yl)ethanone] | 100 to 1000 | 1 to 100 | – | –
13 | Nc1c(Br)c([C@H]2CC[C@@](O)(CC(=O)O)CC2)nc2c(-c3cnn(-c4ccccc4)c3)cnn12 [Compound 79, 2-((1R,4R)-4-(7-amino-6-bromo-3-(1-phenyl-1H-pyrazol-4-yl)pyrazolo[1,5-a]pyrimidin-5-yl)-1-hydroxycyclohexyl)-acetic acid] | 100 to 1000 | 1 to 100 | – | –
14 | COC[C@]1(O)CC[C@@H](c2nc3c(-c4ccc(-c5ccccc5)nc4)cnn3c(N)c2Br)CC1 [Compound 164, (1S,4S)-4-(7-amino-6-bromo-3-(6-phenylpyridin-3-yl)pyrazolo[1,5-a]pyrimidin-5-yl)-1-(methoxymethyl)cyclohexanol] | 1000 to 2000 | 1 to 100 | – | –
15 | CS[C@]1(C(=O)O)CC[C@H](c2nc3c(-c4cnn(-c5ccccc5)c4)cnn3c(N)c2Br)CC1 [Compound 9, (1S,4S)-4-(7-amino-6-bromo-3-(1-phenyl-1H-pyrazol-4-yl)pyrazolo[1,5-a]pyrimidin-5-yl)-1-(methylthio)-cyclohexane-carboxylic acid] | 100 to 1000 | 1 to 100 | – | –
16 | CO[C@]1(CO)CC[C@@H](c2nc3c(-c4ccc(-c5ccccc5)nc4)cnn3c(N)c2C(C)=O)CC1 [Compound 84, 1-(7-amino-5-((1R,4R)-4-(hydroxymethyl)-4-methoxycyclohexyl)-3-(6-phenylpyridin-3-yl)pyrazolo[1,5-a]pyrimidin-6-yl)ethanone] | 100 to 1000 | 1 to 100 | – | –
17 | Nc1c(Br)c(C2CCC(O)(CO)CC2)nc2c(-c3cnn(-c4ccccc4)c3)cnn12 (centres unmarked) [Compound 135, 4-(7-amino-6-bromo-3-(1-phenyl-1H-pyrazol-4-yl)pyrazolo[1,5-a]pyrimidin-5-yl)-1-(hydroxymethyl)-cyclohexanol] | 100 to 1000 | 1 to 100 | – | –
18 | CO[C@]1(C(=O)O)CC[C@H](c2nc3c(-c4cnc5ccc(F)cc5c4)cnn3c(N)c2Br)CC1 [Compound 32, (1S,4S)-4-(7-amino-6-bromo-3-(6-fluoroquinolin-3-yl)pyrazolo[1,5-a]pyrimidin-5-yl)-1-methoxycyclohexane-carboxylic acid] | 100 to 1000 | 1 to 100 | – | –
19 | COCCO[C@]1(C(=O)NOCC2CC2)CC[C@@H](c2nc3c(-c4ccc(-c5ccccc5)nc4)cnn3c(N)c2S(C)(=O)=O)CC1 [Compound 106, (1R,4R)-4-(7-amino-6-(methylsulfonyl)-3-(6-phenylpyridin-3-yl)pyrazolo[1,5-a]pyrimidin-5-yl)-N-(cyclopropylmethoxy)-1-(2-methoxyethoxy)-cyclohexane-carboxamide] | – | 1 to 100 | – | –
20 | CC(=O)c1c(C2CCC(O)(CO)CC2)nc2c(-c3ccc(-c4ccc(O)nc4)nc3)cnn2c1N (centres unmarked) [Compound 147, 1-(7-amino-3-(6′-hydroxy-2,3′-bipyridin-5-yl)-5-(4-hydroxy-4-(hydroxymethyl)-cyclohexyl)-pyrazolo-[1,5-a]pyrimidin-6-yl)ethanone] | – | 1 to 100 | – | –
